Columns and labels:
[1] = system: Jurkat cells; experiment: growth and survival of Jurkat cells (Countess, Trypan blue); assay type: cell-based
Method: The effects of both inhibitors were tested also on growth of the non-adherent Jurkat cells. Total amount of cells and the number of dead cells was determined by the Countess (Invitrogen, Carlsbad, CA). […].

[2] = system: Jurkat cells; experiment: Seahorse XF assay (ECAR and OCR) in Jurkat cells; assay type: cell-based, human; conditions: 100 µM added 24 hours before the experiment; treated versus untreated cells
Method: The efficiency of Inhibitors No. 3 and No. 9 was also tested by the determinations of glycolytic capacities in Jurkat cells in the presence and absence of inhibitors. For this purpose, Seahorse XF assay (Agilent Technology) was performed that enables non-destructive measurements of extracellular acidification rate (ECAR) and oxygen consumption rate (OCR) of tested cells. The cells were incubated in […] GlutaMAX medium with 10% FBS and 24 hours before the experiment inhibitors were added (100 µM). Non-adherent Jurkat cells (1×10^6 per mL) were stuck to the bottom of the wells by poly-I-lysine. The experiment was conducted essentially as recommended by Seahorse XF protocol and after 20 minutes of incubation, 1 µM of oligomycin A (ATP synthase inhibitor) and 0,25 µM of Carbonyl cyanide-4-(trifluoromethoxy)phenylhydrazone (FCCP) (mitochondrial oxidative phosphorylation uncoupler) were added to the cells. […] Reduced lactate excretion by the cells treated with both inhibitors might be responsible for reduced ECARs. Although the addition of oligomycin A and FCCP increased the extracellular acidification rate by the cells treated with both inhibitors, similar increase of ECAR was also observed in the untreated cells. […] It implies that inhibited PFK1 enzymes might reduce glycolytic flux and prevent the need for pyruvate reduction into lactate by re-oxidizing redundant cytosolic NADH. Under such conditions pyruvate can enter mitochondria, replenishing tri-carboxylic acids (TCA) cycle and fuelling oxidative respiration.

[3] = system: MCF-10A cell line; experiment: lactate excretion by non-tumorigenic MCF-10A cells; assay type: cell-based
Method: The effect of Inhibitor No. 3 on lactate excretion was tested also on two non-tumorigenic cell lines. First, fast proliferating human embryonic kidney (HEK 293) cells were assessed for lactate formation in the presence of Inhibitor No. 3. RPMI 1640 GlutaMAX medium (Thermo Fisher) supplemented with 10% FBS was used as a growth medium. […] About 95 mg/L of lactate were detected after 72 hours of incubation by untreated cells (control) and by the cells growing in the presence of Inhibitor No. 3 (Figure 9a). Similar results were recorded also by non-tumorigenic MCF-10A cell line isolated form the epithelial cells of the mammary gland. The cells were cultivated in MEBM medium supplemented by additives that were obtained as a MEGM Kit from Lonza/Clonetics Corporation. Characteristically these cells grew slower than HEK 293 cells with correspondingly slower lactate excretion rate. After 96 hours of incubation, only about 27 mg/L of lactate was detected in the medium. Again, no influence of different concentrations of Inhibitor No. 3 on lactate generation could be observed (Figure 9b).

[4] = system: COLO 829 cells; experiment: cytotoxicity in COLO 829 cells (LDH kit); assay type: cell-based
Method: Lactate generation, growth yield and survival under normal and inhibitory conditions of three different tumorigenic cells lines were determined in more detailed measurements. […] Cytotoxicity was measured by the Lactate dehydrogenase (LDH) kit (Roche).

[5] = system: Jurkat cells; experiment: long-term fed-batch cultivation of Jurkat cells (18 days); conditions: 100 µM
[6] = molecular target: T1, native human (85 kDa) 6-phosphofructo-1-kinase (PFK-M), nPFK-M (Homo sapiens, UniProt P08237); experiment: in vitro inhibition of purified recombinant native PFK-M enzyme; conditions: inhibitor range 10 - 50 µM, Figure 3
T1 sequence (P08237 1-780): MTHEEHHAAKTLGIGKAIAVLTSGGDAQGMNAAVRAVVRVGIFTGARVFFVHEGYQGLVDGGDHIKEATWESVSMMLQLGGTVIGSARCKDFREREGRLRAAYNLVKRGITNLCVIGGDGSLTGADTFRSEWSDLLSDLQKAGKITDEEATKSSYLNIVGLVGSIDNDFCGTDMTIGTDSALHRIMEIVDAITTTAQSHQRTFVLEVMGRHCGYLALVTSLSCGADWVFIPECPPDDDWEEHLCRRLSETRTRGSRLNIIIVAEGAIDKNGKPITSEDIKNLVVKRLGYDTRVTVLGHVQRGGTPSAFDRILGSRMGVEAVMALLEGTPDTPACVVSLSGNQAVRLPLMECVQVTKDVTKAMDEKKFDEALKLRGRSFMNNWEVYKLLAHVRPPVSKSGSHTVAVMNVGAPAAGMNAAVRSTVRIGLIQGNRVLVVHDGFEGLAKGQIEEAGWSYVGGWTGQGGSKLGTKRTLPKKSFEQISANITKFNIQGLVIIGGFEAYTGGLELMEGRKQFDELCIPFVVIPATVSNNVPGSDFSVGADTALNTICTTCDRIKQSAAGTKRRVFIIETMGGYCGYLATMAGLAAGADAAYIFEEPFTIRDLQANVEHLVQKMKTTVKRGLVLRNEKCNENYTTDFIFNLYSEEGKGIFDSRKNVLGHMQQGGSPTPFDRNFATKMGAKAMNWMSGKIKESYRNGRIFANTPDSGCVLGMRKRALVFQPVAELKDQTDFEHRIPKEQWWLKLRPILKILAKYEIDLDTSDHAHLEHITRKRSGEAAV

O=C(CSc1nnc(-c2ccc3c(c2)OCO3)o1)Nc1ccon1 [Inhibitor No. 3, 2-[(5-benzo[1,3]dioxol-5-yl-1,3,4-oxadiazol-2-yl)sulfanyl]-N-isoxazol-3-yl-acetamide]
dead cells ([1]; Jurkat cells stained with Tripan blue): 3,21±0,27% | effect on growth of Jurkat cells (total cell numbers) ([1]; different concentrations, 72 hours): remarkable reduction of growth rate at concentrations higher than 25 µM | ECAR and OCR values prior to the addition of oligomycin A and FCCP [2]: untreated Jurkat cells revealed higher ECAR and OCR values | lactate detected in the medium, MCF-10A ([3]; after 96 hours of incubation, no influence of inhibitor concentration): about 27 mg/L | influence on lactate generation, MCF-10A ([3]; different concentrations, 96 hours): no influence | average percentages of dead cells, COLO 829, sequential re-insertion ([4]; sequential addition at 24-hour intervals, 92 hours, average over medium without and with inhibitor): 1,95±0,15% | average percent of dead COLO 829 cells ([4]; single addition, average over control and different concentrations of inhibitor): 5,01±1,08% | viability of the Jurkat cells, long-term ([5]; fed-batch, 18 days): slight decrease of viability | duration of slow reduction of lactate generation rate after the addition of inhibitor ([5]; long term experiment): 24 to 48 h | inhibition of the activity of native nPFK-M enzyme [6]: remarkably reduced also the activity of native nPFK-M enzyme
